Measurements published in patent US8920789B2, “Use of polymer D-lactic acid (PDLA) or equivalents thereof to inhibit growth of cancer cells and diagnose cancers” (The United States of America as represented by the …, priority 2011, dated 2014).

Tests used:
[1] = Interference with l-lactate measurement in saline (L-Lactate Accuvin test strips); conditions: d-lactic acid (0.05 mg) + l-lactic acid (0.06 mg)
Experimental: Forty mg of d-lactic acid (Sigma-Aldrich, St. Louis, Mo.; catalog no. L0625) was polymerized in a microwave oven according to the method of Pandey and Aswath (J Biomater Sci Polym Ed. 2009; 20(1):33-48). Briefly, d-lactic acid was transferred to 2 ml Reacti-Vials (Pierce Chemical Co., Rockford, Ill.) and the polymerization was carried out vented in a GE Spacemaker Model JVM 1650WH05 (Serial #900524B; manufactured April 2006) with an RF output frequency of 2450 MHz in the absence of any added solvent or catalyst. Polymerization was carried out starting at Power 1 setting on the microwave and weighing at 30 second intervals. […] Weight loss was from water during polymer esterification and dehydration. During the course of the microwave process, d-lactic acid crystals undergo a state change from a solid to a liquid and then to a gel at the end of the process. Similar procedure was used to produce PLLA with l-lactic acid.
[…] Measurement of l-lactate with L-Lactate Accuvin Test strips (Accuvin LLC, Napa, Ca), using stereospecific lactate dehydrogenase and a tetrazolium color indicator, measured less l-lactate (interference) in the experimental sample as evidenced by colorimetric determination. Experimental sample vs, control measured 10 mg/L vs, 50 mg/L of l-lactate. Other relevant tests using similar methodology and D-Lactate Accuvin Test strips are as follows:

[2] = Interference with d-lactate measurement in saline (D-Lactate Accuvin test strips); conditions: similar methodology

Row | SMILES | l-lactate test strip [1] | Interference with lactate measurement (in words) [2]
1 | C[C@@H](O)C(=O)O [d-lactic acid] | 50 mg/L | –
2 | C[C@H](O)C(=O)O [l-lactic acid] | – | No interference
